Several values for one entry are separate records, joined by “and”; a condition that tells them apart may be missing. Equal values may be shown once.
How the values were obtained:
[1] = xn = mol fraction of the nth substance listed

CCOC(=O)CC(C)=O + CCCCO
viscosity [mPa·s], [1], 100 kPa
Conditions | x1 = 0.077 | x1 = 0.1552 | x1 = 0.2375 | x1 = 0.324 | x1 = 0.4191 | x1 = 0.5209 | x1 = 0.6261 | x1 = 0.74 | x1 = 0.861
293.15 K | 2.378 | 2.032 | 1.795 | 1.639 | 1.567 | 1.564 | 1.56 | 1.565 | 1.603
298.15 K | 2.063 | 1.788 | 1.629 | 1.525 | 1.466 | 1.435 | 1.425 | 1.427 | 1.46

CC(=O)Nc1ccc(O)cc1 + O
viscosity, [1], 101 kPa
Conditions | x1 = 0.00011 | x1 = 0.000241 | x1 = 0.000483 | x1 = 0.000727 | x1 = 0.000975 | x1 = 0.00122
298.15 K | 0.8928 mPa·s and 0.8928 mPa·s | 0.8964 mPa·s and 0.8964 mPa·s | 0.9001 mPa·s and 0.9001 mPa·s | 0.9061 mPa·s and 0.9061 mPa·s | 0.9121 mPa·s and 0.9121 mPa·s | 0.9178 mPa·s and 0.9178 mPa·s
308.15 K | 0.7208 mPa·s and 0.7208 mPa·s | 0.7243 mPa·s and 0.7243 mPa·s | 0.7281 mPa·s and 0.7279 mPa·s | 0.7329 mPa·s and 0.7329 mPa·s | 0.7378 mPa·s and 0.7378 mPa·s | 0.7424 mPa·s and 0.7424 mPa·s
318.15 K | 0.598 mPa·s and 0.598 mPa·s | 0.6004 mPa·s and 0.6004 mPa·s | 0.6053 mPa·s and 0.6053 mPa·s | 0.6102 mPa·s and 0.6102 mPa·s | 0.6151 mPa·s and 0.6151 mPa·s | 0.6197 mPa·s and 0.6197 mPa·s

CCCCCCCCCCCO + CCCCCCCCO
viscosity [mPa·s], [1]
Conditions | 293.15 K | 298.15 K | 308.15 K | 318.15 K
101 kPa, x2 = 0.1003 | – | 13.35 | – | –
101 kPa, x2 = 0.6998 | 10.95 | – | – | –
101.8 kPa, x2 = 0.1273 | – | 13.25 | 9.151 | 6.474
101.8 kPa, x2 = 0.3622 | – | 11.61 | 8.096 | 5.781
101.8 kPa, x2 = 0.5698 | – | 10.24 | 7.208 | 5.187
101.8 kPa, x2 = 0.756 | – | 9.094 | 6.447 | 4.673
101.8 kPa, x2 = 0.9212 | – | 7.658 | 5.5 | 4.027

CCC(=O)c1ccccc1 + CC#N
[1], 308.15 K, 101 kPa
Conditions | viscosity [mPa·s]
x1 = 0.0418 | 0.3347
x1 = 0.0922 | 0.3774
x1 = 0.1459 | 0.4272
x1 = 0.2084 | 0.4875
x1 = 0.2804 | 0.5679
x1 = 0.3757 | 0.6605
x1 = 0.4796 | 0.7806
x1 = 0.6093 | 0.9478
x1 = 0.7791 | 1.188
x1 = 0.9397 | 1.426

CC(C)(C)C(=O)O
101 kPa
Conditions | viscosity [mPa·s]
313.15 K | 2.45
318.15 K | 2.23
323.15 K | 2.06

CCCCCCCCCc1ccccc1
viscosity [mPa·s]
Conditions | 293.15 K | 303.15 K | 313.15 K | 323.15 K
100 kPa | – | – | 2.094 | –
102 kPa | 3.14 | 2.51 | 2.05 | 1.72

CCC(=O)c1ccccc1 + CCCCOCCO
viscosity [mPa·s], [1], 101 kPa
Conditions | x1 = 0.0996 | x1 = 0.1994 | x1 = 0.2992 | x1 = 0.399 | x1 = 0.499 | x1 = 0.599 | x1 = 0.6992 | x1 = 0.7994 | x1 = 0.8996
303.15 K | 2.333 | 2.24 | 2.148 | 2.056 | 1.964 | 1.873 | 1.782 | 1.692 | 1.602
308.15 K | 2.192 | 2.109 | 2.027 | 1.946 | 1.865 | 1.784 | 1.704 | 1.624 | 1.545
313.15 K | 2.044 | 1.972 | 1.901 | 1.831 | 1.762 | 1.692 | 1.622 | 1.554 | 1.486
318.15 K | 1.863 | 1.805 | 1.749 | 1.694 | 1.639 | 1.584 | 1.53 | 1.476 | 1.424

OCCO + CN1CCCC1=O
[1], 101.33 kPa
Conditions | viscosity [mPa·s]
298.15 K, x2 = 0.04751 | 15.44
298.15 K, x2 = 0.09916 | 13.78
298.15 K, x2 = 0.1991 | 10.76
298.15 K, x2 = 0.3018 | 8.242
298.15 K, x2 = 0.4012 | 6.415
298.15 K, x2 = 0.5073 | 4.977
298.15 K, x2 = 0.6067 | 3.952
298.15 K, x2 = 0.7014 | 3.171
298.15 K, x2 = 0.8018 | 2.527
298.15 K, x2 = 0.9001 | 2.066
298.15 K, x2 = 0.9545 | 1.852
308.15 K, x2 = 0.04799 | 10.58
308.15 K, x2 = 0.1004 | 9.465
308.15 K, x2 = 0.2025 | 7.514
308.15 K, x2 = 0.3042 | 5.982
308.15 K, x2 = 0.4097 | 4.697
308.15 K, x2 = 0.5032 | 3.855
308.15 K, x2 = 0.6042 | 3.122
308.15 K, x2 = 0.6992 | 2.566
308.15 K, x2 = 0.7967 | 2.112
308.15 K, x2 = 0.9027 | 1.716
308.15 K, x2 = 0.9599 | 1.543
318.15 K, x2 = 0.04516 | 7.524
318.15 K, x2 = 0.1031 | 6.736
318.15 K, x2 = 0.1996 | 5.567
318.15 K, x2 = 0.2999 | 4.538
318.15 K, x2 = 0.4047 | 3.687
318.15 K, x2 = 0.5078 | 3.015
318.15 K, x2 = 0.6054 | 2.505
318.15 K, x2 = 0.6952 | 2.124
318.15 K, x2 = 0.7968 | 1.771
318.15 K, x2 = 0.8899 | 1.498
318.15 K, x2 = 0.9612 | 1.327

CCOP(=O)([O-])OCC.CC[N+]1(C)CCOCC1
100 kPa
Conditions | viscosity [mPa·s]
293.15 K | 12080
298.15 K | 6680
303.15 K | 3786
308.15 K | 2325
313.15 K | 1466
318.15 K | 941.7
323.15 K | 634

— the CheMixHub viscosity set
